# Laboratory results reported in article PMC7031696 (Cell chemical biology, 2019).
# Read-outs that look alike come from different tables or passages of the source.
# Assays:
# [1] = tested on: Plasmodium falciparum 3D7-A10 parasites; assay: Stage specificity assay (8-h exposure of synchronized stages, IC50^8h); assay type: cell-based; details: for IC50: Plasmodium falciparum
# [2] = tested on: asynchronous 3D7-A10 parasite cultures; assay: Standard 72-h exposure asexual blood stage susceptibility assay (IC50^72h); assay type: cell-based, Plasmodium falciparum; details: Plasmodium falciparum, 3D7, 72 h, read-out: Overall (72hr assay) Mean IC50 (IC50^72h)
# [3] = tested on: 3D7-MR4 trophozoite parasite-infected RBCs; assay: Metabolomic profiling (hydrophilic metabolite changes, UHPLC-MS); assay type: cell-based, Plasmodium falciparum
# [4] = tested on: 3D7-A10 or Dd2-B2 parasites; assay: Resistance selections (single step, pulsing or ramping); assay type: cell-based, Plasmodium falciparum
# [5] = tested on: synchronized Plasmodium falciparum parasites; assay: Microscopical study of cell morphology after 8-h exposures (Figure S4); assay type: cell-based; details: 3× the IC50^8h of the most sensitive life stage, 8-h intervals
# [6] = 10 × IC50^72h, 2.5 hr, trophozoites
compound,measurement,setting,value
CC(C)(C)OC(=O)N1CCN(c2ccccc2NC(=O)c2cccc(C(F)(F)F)c2Oc2ccc(F)cc2)CC1 [MMV030666],Ratio lowest IC50 8hr/IC50 72hr,[1]; 3D7-A10,1.9
same,killing in stage specificity assay,"[1]; 8-h exposures, survival curves",incomplete killing
same,IC50,"[1]; 3D7, read-out: Early rings Mean IC50 (IC50^8h), 8-h exposure 0–8 hr, 3D7-A10, survival at 60 h",10.3 µM
same,IC50,"[1]; 3D7, read-out: Early trophozoites Mean IC50 (IC50^8h), 8-h exposure 16–24 hr, 3D7-A10, survival at 60 h",5.12 µM
same,IC50,"[1]; 3D7, read-out: Late rings Mean IC50 (IC50^8h), 8-h exposure 8–16 hr, 3D7-A10, survival at 60 h",11.4 µM
same,IC50,"[1]; 3D7, read-out: Late trophozoites Mean IC50 (IC50^8h), 8-h exposure 24–32 hr, 3D7-A10, survival at 60 h",0.858 µM
same,IC50,"[1]; 3D7, read-out: Schizonts Mean IC50 (IC50^8h), 8-h exposure 32–40 hr, 3D7-A10, survival at 60 h",4.19 µM
same,Stage of peak activity (Figure 6),[1]; period when the parasite was most susceptible (lowest IC50^8h),late trophozoites
same,Peak Activity (Table S1),[1]; stage(s) with the lowest IC50^8h,Late Trophs
same,IC50,[2],0.462 µM
same,metabolic signature: increases in the pyrimidine precursors dihydroorotate and N-carbamoyl-L-aspartate (mETC disruption),[3]; [6],observed
same,orotidine 5-P levels,[3]; [6],decreased
same,peptide levels (hemoglobin catabolism signature),[3]; [6],decreased peptide levels
same,Log2(fold changes) 3-phosphoglycerate,"[3]; metabolite 3-phosphoglycerate, log2 fold change",0.0028
same,Log2(fold changes) 4-Pyridoxic acid,"[3]; metabolite 4-Pyridoxic acid, log2 fold change",-0.4279
same,Log2(fold changes) 4-aminobutyrate,"[3]; metabolite 4-aminobutyrate, log2 fold change",-0.0634
same,Log2(fold changes) 4-phosphopantetheine,"[3]; metabolite 4-phosphopantetheine, log2 fold change",-0.3320
same,Log2(fold changes) 4-phosphopantothenate,"[3]; metabolite 4-phosphopantothenate, log2 fold change",-1.0807
same,Log2(fold changes) 5-aminopentanoic acid,"[3]; metabolite 5-aminopentanoic acid, log2 fold change",0.0000
same,Log2(fold changes) 5-methyl-THF,"[3]; metabolite 5-methyl-THF, log2 fold change",0.0000
same,Log2(fold changes) 5-phosphoribosyl-1-pyrophosphate,"[3]; metabolite 5-phosphoribosyl-1-pyrophosphate, log2 fold change",-0.6917
same,Log2(fold changes) 6-phospho-D-gluconate,"[3]; metabolite 6-phospho-D-gluconate, log2 fold change",-0.3165
same,Log2(fold change) HVDD,[3]; metabolite HVDD,-4.9061
same,Log2(fold change) Hydroxyisocaproic acid,[3]; metabolite Hydroxyisocaproic acid,0.0000
same,Log2(fold change) IDP,[3]; metabolite IDP,0.0000
same,Log2(fold change) IMP,[3]; metabolite IMP,0.0932
same,Log2(fold change) Inositol,[3]; metabolite Inositol,0.0000
same,Log2(fold change) Isopentyl-PP,[3]; metabolite Isopentyl-PP,0.0000
same,Log2(fold change) L-arginino-succinate,[3]; metabolite L-arginino-succinate,-1.0911
same,Log2(fold change) LD,[3]; metabolite LD,-0.6358
same,Log2(fold change) Myristoyl/tetradecanoyl-CoA,[3]; metabolite Myristoyl/tetradecanoyl-CoA,0.0000
same,Log2(fold change) N-Acetyl-L-alanine,[3]; metabolite N-Acetyl-L-alanine,-0.5215
same,Log2(fold change) N-acetyl-L-ornithine,[3]; metabolite N-acetyl-L-ornithine,0.0000
same,Log2(fold change) N-acetyl-glucosamine-1/6-phosphate,[3]; metabolite N-acetyl-glucosamine-1/6-phosphate,-0.1279
same,Log2(fold change) N-acetyl-glutamate,[3]; metabolite N-acetyl-glutamate,0.2373
same,Log2(fold change) N-acetyl-glutamine,[3]; metabolite N-acetyl-glutamine,-0.0526
same,Log2(fold change) N-carbamoyl-L-aspartate,[3]; metabolite N-carbamoyl-L-aspartate,1.9816
same,Log2(fold change) NAD+,[3]; metabolite NAD+,-0.1975
same,Log2(fold change) NADH,[3]; metabolite NADH,1.6901
same,Log2(fold change) NADP+,[3]; metabolite NADP+,-0.2280
same,Log2(fold change) NADPH,[3]; metabolite NADPH,1.2462
same,Log2(fold change) O-acetyl-L-serine,[3]; metabolite O-acetyl-L-serine,0.0000
same,Log2(fold change) Octoluse 8/1P,[3]; metabolite Octoluse 8/1P,0.2225
same,Log2(fold change) Octoluse Bisphosphate,[3]; metabolite Octoluse Bisphosphate,-1.0839
same,Log2(fold change) PD,[3]; metabolite PD,-3.4872
same,Log2(fold change) PE,[3]; metabolite PE,-3.3751
same,Log2(fold change) PEE,[3]; metabolite PEE,-2.7815
same,Log2(fold change) PEEK,[3]; metabolite PEEK,-2.6677
same,Log2(fold change) PVNF,[3]; metabolite PVNF,-4.4222
same,Log2(fold change) Pyroglutamic acid,[3]; metabolite Pyroglutamic acid,0.3360
same,Log2(fold change) Pyrophosphate,[3]; metabolite Pyrophosphate,0.0000
same,Log2(fold change) Ribose-5-phosphate,[3]; metabolite Ribose-5-phosphate,-0.7810
same,Log2(fold change) S-adenosyl-L-homocysteine,[3]; metabolite S-adenosyl-L-homocysteine,0.2136
same,Log2(fold change) S-adenosyl-L-methioninamine,[3]; metabolite S-adenosyl-L-methioninamine,0.0000
same,Log2(fold change) S-adenosyl-L-methionine,[3]; metabolite S-adenosyl-L-methionine,0.0000
same,Log2(fold change) S-methyl-5'-thioadenosine,[3]; metabolite S-methyl-5'-thioadenosine,0.3369
same,Log2(fold change) SD,[3]; metabolite SD,-2.5205
same,Log2(fold change) SDL,[3]; metabolite SDL,-4.4795
same,Log2(fold change) SID,[3]; metabolite SID,0.0000
same,Log2(fold change) Sedoheptulose bisphosphate,[3]; metabolite Sedoheptulose bisphosphate,-0.5250
same,Log2(fold change) Thiamine pyrophosphate,[3]; metabolite Thiamine pyrophosphate,-0.1162
same,Log2(fold changes) UDP-D-glucose,"[3]; metabolite UDP-D-glucose, log2 fold change",-0.1835
same,Log2(fold changes) UDP-D-glucuronate,"[3]; metabolite UDP-D-glucuronate, log2 fold change",-0.4871
same,Log2(fold changes) UDP-N-acetyl-glucosamine,"[3]; metabolite UDP-N-acetyl-glucosamine, log2 fold change",-0.5093
same,Log2(fold changes) UDP,"[3]; metabolite UDP, log2 fold change",-1.4928
same,Log2(fold changes) UMP,"[3]; metabolite UMP, log2 fold change",-0.5598
same,Log2(fold changes) UTP,"[3]; metabolite UTP, log2 fold change",-1.9407
same,Log2(fold change) hydroxyphenylpyruvate,[3]; metabolite hydroxyphenylpyruvate,0.0000
same,Log2(fold change) hydroxyproline/Aminolevulinate,[3]; metabolite hydroxyproline/Aminolevulinate,-0.0744
same,Log2(fold change) hypoxanthine,[3]; metabolite hypoxanthine,0.1169
same,Log2(fold change) indole,[3]; metabolite indole,0.3440
same,Log2(fold change) inosine,[3]; metabolite inosine,-0.2932
same,Log2(fold change) isoleucine,[3]; metabolite isoleucine,-0.1542
same,Log2(fold change) lactate,[3]; metabolite lactate,-0.3562
same,Log2(fold change) leucine,[3]; metabolite leucine,-0.3099
same,Log2(fold change) lysine,[3]; metabolite lysine,0.0000
same,Log2(fold change) malate,[3]; metabolite malate,-1.0993
same,Log2(fold change) maleic acid,[3]; metabolite maleic acid,-0.3336
same,Log2(fold change) methionine,[3]; metabolite methionine,-0.1260
same,Log2(fold change) myo-inositol,[3]; metabolite myo-inositol,0.0000
same,Log2(fold change) nicotinamide mononucleotide,[3]; metabolite nicotinamide mononucleotide,0.0000
same,Log2(fold change) nicotinate,[3]; metabolite nicotinate,-0.1069
same,Log2(fold change) ornithine,[3]; metabolite ornithine,0.0000
same,Log2(fold change) orotate,[3]; metabolite orotate,-0.1643
same,Log2(fold change) orotidine-5'-phosphate,[3]; metabolite orotidine-5'-phosphate,-1.8500
same,Log2(fold change) oxaloacetate,[3]; metabolite oxaloacetate,0.0000
same,Log2(fold change) p-aminobenzoate,[3]; metabolite p-aminobenzoate,0.0000
same,Log2(fold change) p-hydroxybenzoate,[3]; metabolite p-hydroxybenzoate,0.0000
same,Log2(fold change) pantothenate,[3]; metabolite pantothenate,-0.0587
same,Log2(fold change) phenylalanine,[3]; metabolite phenylalanine,-0.5281
same,Log2(fold change) phenylpyruvate,[3]; metabolite phenylpyruvate,0.0000
same,Log2(fold change) phosphoenolpyruvate,[3]; metabolite phosphoenolpyruvate,0.0797
same,Log2(fold change) prephenate,[3]; metabolite prephenate,0.0000
same,Log2(fold change) proline,[3]; metabolite proline,-0.4182
same,Log2(fold change) pyridoxine,[3]; metabolite pyridoxine,0.0000
same,Log2(fold change) pyruvate,[3]; metabolite pyruvate,-1.3359
same,Log2(fold change) riboflavin,[3]; metabolite riboflavin,-0.6446
same,Log2(fold change) ribose,[3]; metabolite ribose,0.0000
same,Log2(fold change) ribose-phosphate,[3]; metabolite ribose-phosphate,0.0000
same,Log2(fold change) ribulose-5-phosphate,[3]; metabolite ribulose-5-phosphate,-0.3252
same,Log2(fold change) serine,[3]; metabolite serine,-0.1988
same,Log2(fold change) sn-glycerol-3-phosphate,[3]; metabolite sn-glycerol-3-phosphate,0.6292
same,Log2(fold change) succinate/Methylmalonic acid,[3]; metabolite succinate/Methylmalonic acid,-1.4071
same,Log2(fold change) succinyl-CoA/methylmalonyl-CoA,[3]; metabolite succinyl-CoA/methylmalonyl-CoA,-0.7249
same,Log2(fold change) taurine,[3]; metabolite taurine,0.0000
same,Log2(fold change) thiamine,[3]; metabolite thiamine,0.0000
same,Log2(fold change) threonine/homoserine,[3]; metabolite threonine/homoserine,-0.8029
same,Log2(fold change) thymidine,[3]; metabolite thymidine,0.0000
same,Log2(fold changes) thymine,"[3]; metabolite thymine, log2 fold change",0.0000
same,Log2(fold changes) trehalose-6-Phosphate,"[3]; metabolite trehalose-6-Phosphate, log2 fold change",0.0000
same,Log2(fold changes) tryptophan,"[3]; metabolite tryptophan, log2 fold change",0.1993
same,Log2(fold changes) tyrosine,"[3]; metabolite tyrosine, log2 fold change",-0.2219
same,Log2(fold changes) uridine,"[3]; metabolite uridine, log2 fold change",0.0000
same,outcome of ramping resistance selection,"[4]; 3D7-A10, 1 × to 1.8 × IC50^72h over 3 months",did not produce resistance
same,outcome of resistance selections (continuous exposure or pulsing),"[4]; 5 × 10^8 to 1 × 10^9 3D7-A10 or Dd2-B2 parasites, 3–6 × IC50^72h",failed to yield resistance
same,minimum inocula of resistance,[4]; from failed selections in 3D7-A10 / Dd2-B2,above 5 × 10^8 parasites
same,digestive vacuole morphology,[5],bloated digestive vacuoles
same,most susceptible stage by cell morphology,[5],late trophozoite stage
